Results on eight compounds are retold here after PubChem BioAssay AID180 (DTP/NCI, 2004).

“And” between values parts separate entries of the source, which are not always exact repeats. Equal entries are not always repeated.

The assay concerns BDF1 mice, Adenocarcinoma 755 s.c., tumor weight T/C. In words: NCI In Vivo Anticancer Drug Screen. Data for tumor model Adenocarcinoma 755 (subcutaneous) in B6D2F1 (BDF1) mice. Conditions: endpoint: mean tumor weight, higher = larger tumour. The essentials:
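Tumor-bearing mice receive test compound while controls get vehicle alone. Antitumor effect is scored from survival or tumor dimensions as a T/C quotient.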

[1] abbreviates: dose: 75.0 mg/kg/injection, schedule: Q01DX011 (ip), vehicle: methylcellulose (MC).

For the compound `CCOC(=O)Sc1ncnc2nc[nH]c12`, the T/C was 87 % of control (dose: 0.21 mg/kg/injection, schedule: Q01DX011 (ip), vehicle: carboxymethylcellulose (CMC)); 41 % of control (dose: 0.42 mg/kg/injection, schedule: Q01DX011 (ip), vehicle: carboxymethylcellulose (CMC)); 50 % of control (dose: 0.85 mg/kg/injection, schedule: Q01DX011 (ip), vehicle: carboxymethylcellulose (CMC)); 3 % of control and 7 % of control and 12 % of control (dose: 1.75 mg/kg/injection, schedule: Q01DX011 (ip), vehicle: carboxymethylcellulose (CMC)); 4 % of control (dose: 3.5 mg/kg/injection, schedule: Q01DX011 (ip), vehicle: carboxymethylcellulose (CMC)); 1 % of control and 5 % of control (dose: 7.0 mg/kg/injection, schedule: Q01DX011 (ip), vehicle: carboxymethylcellulose (CMC)). Also, the T/C was 2 % of control and 8 % of control (dose: 14.0 mg/kg/injection, schedule: Q01DX011 (ip), vehicle: carboxymethylcellulose (CMC)); 8 % of control (dose: 28.0 mg/kg/injection, schedule: Q01DX011 (ip), vehicle: carboxymethylcellulose (CMC)); 8 % of control (dose: 56.0 mg/kg/injection, schedule: Q01DX011 (ip), vehicle: carboxymethylcellulose (CMC)); 7 % of control (dose: 112.0 mg/kg/injection, schedule: Q01DX011 (ip), vehicle: carboxymethylcellulose (CMC)).
On to `CCSc1nc(N)nc2c1ncn2C1OC(CO)C(O)C1O` (stereo not given), for which the T/C runs as follows: (dose: 9.3 mg/kg/injection, schedule: Q01DX011 (ip), vehicle: methylcellulose (MC)) 55 % of control; (dose: 18.7 mg/kg/injection, schedule: Q01DX011 (ip), vehicle: methylcellulose (MC)) 39 % of control; (dose: 37.5 mg/kg/injection, schedule: Q01DX011 (ip), vehicle: methylcellulose (MC)) 3 % of control; under setting [1], 4 % of control.
As for `CC(C)=NOC(N)=O`, the T/C was 122 % of control (dose: 100.0 mg/kg/injection, schedule: Q01DX011 (ip), vehicle: water) and 106 % of control (dose: 200.0 mg/kg/injection, schedule: Q01DX011 (ip), vehicle: water).
`CCCCCCSc1ncnc2nc[nH]c12`: the T/C (dose: 31.0 mg/kg/injection, schedule: Q01DX011 (ip), vehicle: other) is 93 % of control; the T/C (dose: 62.0 mg/kg/injection, schedule: Q01DX011 (ip), vehicle: other) was 35 % of control; the T/C (dose: 125.0 mg/kg/injection, schedule: Q01DX011 (ip), vehicle: other) is 2 % of control; the T/C (dose: 250.0 mg/kg/injection, schedule: Q01DX011 (ip), vehicle: other) is 1 % of control; the T/C (dose: 300.0 mg/kg/injection, schedule: Q01DX010 (ip), vehicle: other) was 5 % of control; the T/C (dose: 400.0 mg/kg/injection, schedule: Q01DX010 (ip), vehicle: other) is 3 % of control.
With `CCOC(O)C(F)(F)F` (stereo not given), the T/C reads like this: (dose: 22.0 mg/kg/injection, schedule: Q01DX011 (ip), vehicle: methylcellulose (MC)) 110 % of control; (dose: 25.0 mg/kg/injection, schedule: Q01DX011 (ip), vehicle: carboxymethylcellulose (CMC)) 83 % of control; (dose: 44.0 mg/kg/injection, schedule: Q01DX011 (ip), vehicle: methylcellulose (MC)) 78 % of control; (dose: 50.0 mg/kg/injection, schedule: Q01DX011 (ip), vehicle: carboxymethylcellulose (CMC)) 50 % of control; (dose: 88.0 mg/kg/injection, schedule: Q01DX011 (ip), vehicle: methylcellulose (MC)) 30 % of control; (dose: 100.0 mg/kg/injection, schedule: Q01DX011 (ip), vehicle: carboxymethylcellulose (CMC)) 32 % of control.
On to `Fc1ccccc1CSc1ncnc2c1ncn2C1CCCCO1` (stereo not given), for which, under “dose: 30.0 mg/kg/injection, schedule: Q01DX011 (ip), vehicle: methylcellulose (MC)”, the T/C was 21 % of control.
With `CC(C)Cn1cnc2c(SCCc3ccccc3)nc(N)nc21`, the T/C under setting [1] is 52 % of control; the T/C (dose: 150.0 mg/kg/injection, schedule: Q01DX011 (ip), vehicle: methylcellulose (MC)) was 34 % of control; the T/C (dose: 300.0 mg/kg/injection, schedule: Q01DX011 (ip), vehicle: methylcellulose (MC)) is 3 % of control.
As to `CC(=O)OCC1OC(n2cnc3c(N)ncnc32)CC1OC(C)=O` (stereo not given), the T/C runs as follows: (dose: 30.0 mg/kg/injection, schedule: Q01DX011 (ip), vehicle: carboxymethylcellulose (CMC)) 55 % of control and 68 % of control; (dose: 120.0 mg/kg/injection, schedule: Q01DX011 (ip), vehicle: carboxymethylcellulose (CMC)) 97 % of control and 111 % of control; (dose: 240.0 mg/kg/injection, schedule: Q01DX011 (ip), vehicle: carboxymethylcellulose (CMC)) 108 % of control and 109 % of control.
